Source: article PMC11178545, “Alkynyl nicotinamides show antileukemic activity in drug-resistant acute myeloid leukemia” (The Journal of Clinical Investigation, 2024)

Columns and labels:
[1] = system: AML patient cells (hCD45)
Method: Weekly presence of peripheral blood human CD45 (hCD45 positivity) and murine CD45 (mCD45 positivity) cells was assessed to monitor the effect of treatment. […] At different time points, peripheral blood human CD45 frequency was assessed and followed up for 196 days for survival.
Data from Panel A–G originated from the first sample from a patient with AML and Panels H-J from different patient sample. (A) Experimental design. […] After treatment, mice were euthanized and assessed for hCD45 percentage in peripheral blood, spleen,and bone marrow. […] X-axis showing hCD45-positive cells and y-axis showing mCD45-positive cells. (F) Quantification data on the frequency of hCD45 cells in the bone marrow in mice treated with various drugs. […] (J) Representative flow profiles of leukemic stem and progenitors (K) quantification data on the frequency of human leukemic stem and progenitors under drug treatment. Data represent median with interquartile range by ordinary 1-way ANOVA analysis.

[2] = system: MOLM14 cells; assay: MOLM14-luciferase intravenous xenograft, bioluminescence and survival; assay type: in vivo; conditions: MOLM14-recipient mice; once daily; in words
Source text: Tumor cell growth was monitored by imaging for bioluminescence as a measure of disease burden.
Mice were imaged 3 days later and sorted into 5 mice per group so that luminescence (as a surrogate marker for disease burden) was equal. Dosing started the same day and continued once daily, 5 days/week. Mice were imaged for efficacy once per week and body weight recorded daily. Mice were euthanized when 20% body weight loss, hind limb paralysis, or lack of ability to eat/drink (moribund) were noted. […] Blood samples were collected at indicated time points, and levels of […] in plasma were quantified by LC/MS. Western blots of tumors resected from animals after dosing was performed as described above.

[3] = orally 5 days a week at 20 mg/kg, NSGS mice

Q: `CN1CCN(Cc2ccc(NC(=O)c3cncc(C#Cc4cnc5cccnn45)c3)cc2C(F)(F)F)CC1` [HSN748] was tested. Which “follow up without moribund conditions or mortality” value ([1]; PDX, 20 mg/kg orally, study terminated) did it give?
A: ≥ 128 days

Q: What about the body weight [1, 3] of the same compound?
A: not affected

Q: And the tolerability of dose [1, 3]?
A: well tolerated

Q: What about the “mCD45+ cells in bone marrow” value ([1]; representative flow profile, Figure 7E) of the same compound?
A: 49.9%

Q: What about the “effect on tumor growth and survival compared with Gilteritinib” value [2] of the same compound?
A: superior inhibitory effect
